Assay results taken from article PMC12881670, “Investigation into ligand selectivity and bias at the formyl peptide receptor family” (The Journal of Pharmacology and Experimental Therapeutics, 2025).
pEC50, pIC50: −log10 of the molar value. Where two headings read alike, the source gives them in different places.

Assays:
[1] = test system: formyl peptide receptor family (Hs_FPR1, Hs_FPR2, Mm_Fpr1, Mm_Fpr2); test: Summary of main findings: receptor subtype selectivity and ligand bias across all readouts; set-up: species or system human and mouse; details: for Bias: summary grade of ligand bias relative to WKYMVm, key not given; for Notes: summary of main findings, in words
Description: To determine ligand bias, a reference ligand is required, that is, “balanced” for the pathways tested.[37] […] We then used measurements of the activity ratio (Log (Emax/EC50)) for each receptor, ligand, and pathway in an attempt to observe any ligand bias (Fig. 6).

FPR2 = details: read-out: EC50 arrestin recruitment, Pathhunter, cited from earlier work
Mm_Fpr1 [2] = target: T1, Mm_Fpr1 (Mus musculus, UniProt P33766); test: Competition binding of fluorescent WKYMVm, flow cytometry; details: for Log IC50 (M): log of IC50, competition with 10 nM K(5/6-FAM)-WKYMVm, HEK293 stable cells, on ice 90 min; for Log IC50 (M) / Max Comp (%): mean, ND = no competition observed; for Max Comp (%): maximum proportion of competition with 10 nM K(5/6-FAM)-WKYMVm
T1 construct: expressed in transfected cells
T1 sequence (P33766 1-364): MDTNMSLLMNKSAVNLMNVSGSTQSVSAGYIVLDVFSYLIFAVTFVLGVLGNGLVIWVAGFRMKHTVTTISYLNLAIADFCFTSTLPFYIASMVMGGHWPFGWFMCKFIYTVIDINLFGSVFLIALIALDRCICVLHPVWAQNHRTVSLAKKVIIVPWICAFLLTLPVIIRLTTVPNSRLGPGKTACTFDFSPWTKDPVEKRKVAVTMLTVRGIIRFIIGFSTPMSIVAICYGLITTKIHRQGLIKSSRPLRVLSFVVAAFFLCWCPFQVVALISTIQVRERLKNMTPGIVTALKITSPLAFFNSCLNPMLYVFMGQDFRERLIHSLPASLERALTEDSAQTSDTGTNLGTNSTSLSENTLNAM
Method: (§1) Mean cell fluorescence was then measured for 5000 cells by flow cytometry using either a BD FACScalibur or BD Attune.
(§2) All data were analyzed using GraphPad Prism using the nonlinear regression log(agonist) versus response (3 parameters) function for all assays, except binding, which was analyzed using the One site-FitlogIC50 function. Bias calculations were carried out following IUPHAR guidelines as described,[27]^,[37] and data were presented as the Δ Activity ratio (Log[EmaxB/EC50B])-(Log[EmaxA/EC50A]).

Hs_FPR1 = target: T2, Hs_FPR1 (Homo sapiens, UniProt P21462); test: as above; details: mean, ND = no competition observed; for Log IC50 (M): log of IC50, competition with 10 nM K(5/6-FAM)-WKYMVm, HEK293 stable cells, on ice 90 min; for Max Comp (%): maximum proportion of competition with 10 nM K(5/6-FAM)-WKYMVm
T2 construct: expressed in transfected cells
T2 sequence (P21462 1-350): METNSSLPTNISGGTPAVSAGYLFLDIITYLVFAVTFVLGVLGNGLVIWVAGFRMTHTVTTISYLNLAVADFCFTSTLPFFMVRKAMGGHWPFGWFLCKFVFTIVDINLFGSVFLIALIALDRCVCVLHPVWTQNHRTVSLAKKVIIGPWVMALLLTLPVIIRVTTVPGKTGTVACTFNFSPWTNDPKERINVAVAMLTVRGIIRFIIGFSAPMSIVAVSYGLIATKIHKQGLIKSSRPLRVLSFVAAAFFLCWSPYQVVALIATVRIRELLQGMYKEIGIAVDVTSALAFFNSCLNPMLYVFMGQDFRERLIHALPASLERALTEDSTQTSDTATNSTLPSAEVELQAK
Method: as §1, §2

Mm_Fpr2 = target: T3, Mm_Fpr2 (Mus musculus, UniProt O88536); test: as above; details: for Log IC50 (M): log of IC50, competition with 10 nM K(5/6-FAM)-WKYMVm, HEK293 stable cells, on ice 90 min; for Log IC50 (M) / Max Comp (%): mean, ND = no competition observed; for Max Comp (%): maximum proportion of competition with 10 nM K(5/6-FAM)-WKYMVm
T3 construct: expressed in transfected cells
T3 sequence (O88536 1-351): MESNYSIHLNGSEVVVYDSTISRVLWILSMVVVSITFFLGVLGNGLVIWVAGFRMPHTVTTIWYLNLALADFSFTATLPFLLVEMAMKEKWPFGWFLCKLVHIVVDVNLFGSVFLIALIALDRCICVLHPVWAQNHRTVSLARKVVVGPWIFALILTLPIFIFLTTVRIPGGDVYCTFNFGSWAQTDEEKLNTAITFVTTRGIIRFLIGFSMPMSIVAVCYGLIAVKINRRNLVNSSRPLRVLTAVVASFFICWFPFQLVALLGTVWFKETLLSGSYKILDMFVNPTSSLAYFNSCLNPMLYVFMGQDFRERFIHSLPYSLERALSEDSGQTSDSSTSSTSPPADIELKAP
Method: as §1, §2

Hs_FPR2 = target: T4, Hs_FPR2 (Homo sapiens, UniProt P25090); test: as above; details: for Log IC50 (M): log of IC50, competition with 10 nM K(5/6-FAM)-WKYMVm, HEK293 stable cells, on ice 90 min; for Log IC50 (M) / Max Comp (%): mean, ND = no competition observed; for Max Comp (%): maximum proportion of competition with 10 nM K(5/6-FAM)-WKYMVm
T4 construct: expressed in transfected cells
T4 sequence (P25090 1-351): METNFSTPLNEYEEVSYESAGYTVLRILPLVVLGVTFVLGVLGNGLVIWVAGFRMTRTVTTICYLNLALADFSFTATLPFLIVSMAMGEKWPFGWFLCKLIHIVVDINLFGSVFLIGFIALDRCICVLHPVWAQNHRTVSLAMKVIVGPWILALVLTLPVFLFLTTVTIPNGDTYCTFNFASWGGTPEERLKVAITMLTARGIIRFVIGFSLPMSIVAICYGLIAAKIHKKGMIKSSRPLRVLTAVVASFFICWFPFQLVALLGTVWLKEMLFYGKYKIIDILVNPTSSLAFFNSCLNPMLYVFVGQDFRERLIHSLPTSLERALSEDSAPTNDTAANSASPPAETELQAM
Method: as §1, §2

Mm_Fpr1 [3] = target: T1, Mm_Fpr1; test: BRET receptor-RLuc8 interaction with Venus-mGsi; assay type: cell-based; details: for Log EC50 (M): log of EC50, HEK293 transient, 10 min; for Log EC50 (M) / Emax (%): mGsi BRET, mean, ND = no interaction detected; for Emax (%): % of response to 1 μM WKYMVm
Procedure, shortened: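 Cells were transiently cotransfected with C-terminal RLuc8-tagged FPR and Venus-mGsi or YFP-Arrestin 3 (1:4), then replated at 24 h and cultured a further 24–48 h. After 30 min in HBSS, coelenterazine h (5 μM final) was added 5 min before compound, with a 10 min incubation at 37 °C. Background-subtracted acceptor/donor ratio (N-BRET) was fitted by 3-parameter log(agonist) regression.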

Row | Bias [1] | Log IC50 (M) (Mm_Fpr1 [2]) | Max Comp (%) (Mm_Fpr1 [2]) | Log IC50 (M) (Hs_FPR1) | Max Comp (%) (Hs_FPR1) | Log IC50 (M) (Mm_Fpr2) | Max Comp (%) (Mm_Fpr2) | Log IC50 (M) (Hs_FPR2) | Max Comp (%) (Hs_FPR2) | Log EC50 (M) (Mm_Fpr1 [3]) | Emax (%) (Mm_Fpr1 [3]) | Notes [1] | pIC50 (Mm_Fpr1 [2]) | pIC50 (Mm_Fpr2) | pIC50 (Hs_FPR2) | competition with K(5/6-FAM)-WKYMVm (Hs_FPR2; at 10 μM, incomplete competition) | pEC50 (Mm_Fpr1 [3]) | Emax (Mm_Fpr1 [3]) | Structure (SMILES) | pEC50 (FPR2; FPR2) | pEC50 (FPR2; Hs_FPR2)
1 | No | −7.070 M | 25.96% | −5.265 M | 80.70% | −7.192 M | 80.31% | −7.434 M | 94.77% | −5.74 M | 49.76% |  |  |  |  |  |  |  | Cc1cccc(-c2oc(C)nc2C(=O)Nc2cnn(Cc3nc(C(C)(F)F)co3)n2)c1 [ACT-389949] | 7.70 | 
2 | + (Hs_FPR2) |  | 37.54% |  |  |  | 78.55% |  | 60.14% |  |  | Bias against internalization | 5.95 | 7.14 | 5.61 | ~50% | 5.85 | 21.7% | COc1cc(F)c([C@@H]2CNC(=O)[C@H]2NC(=O)Nc2ccccc2)c(F)c1 [BMS-986235] |  | 6.89
3 | No | −6.114 M | 52.13% | −7.943 M | 9.96% | −7.98 M | 27.99% | −7.399 M | 13.23% | −7.49 M | 30.89% | Partial/weak only |  |  |  |  |  |  | CCCCOc1ccc(C(=O)NN2C(=O)c3ccccc3NC2c2ccc(OC)cc2)cc1 (stereo not drawn) [QuinC1] |  | 
